For one assay, the target named is T1, human SGLT1 (Homo sapiens, UniProt P13866).
T1 construct: expressed in transfected cells
T1 sequence (P13866 1-664): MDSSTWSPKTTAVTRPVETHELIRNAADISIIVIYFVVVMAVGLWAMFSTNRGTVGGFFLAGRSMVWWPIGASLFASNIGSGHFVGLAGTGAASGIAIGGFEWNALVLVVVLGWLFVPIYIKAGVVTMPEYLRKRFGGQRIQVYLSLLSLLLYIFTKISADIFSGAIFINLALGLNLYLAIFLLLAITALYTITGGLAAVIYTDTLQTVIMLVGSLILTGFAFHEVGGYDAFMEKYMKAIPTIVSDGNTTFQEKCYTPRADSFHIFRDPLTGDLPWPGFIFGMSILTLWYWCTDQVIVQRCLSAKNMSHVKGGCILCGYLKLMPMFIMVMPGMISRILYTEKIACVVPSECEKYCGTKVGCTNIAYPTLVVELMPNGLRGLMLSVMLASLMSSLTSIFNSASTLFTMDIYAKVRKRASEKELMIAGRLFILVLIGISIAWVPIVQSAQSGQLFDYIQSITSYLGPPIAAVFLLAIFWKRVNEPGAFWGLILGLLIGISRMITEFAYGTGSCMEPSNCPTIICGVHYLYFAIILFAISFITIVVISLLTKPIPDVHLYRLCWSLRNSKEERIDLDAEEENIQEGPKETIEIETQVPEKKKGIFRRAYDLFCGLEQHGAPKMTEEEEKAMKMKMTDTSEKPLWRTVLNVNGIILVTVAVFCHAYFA
Put plainly: Assay for inhibitory effects on human SGLT1 activity (uptake of methyl-α-D-glucopyranoside in CS1-5-11D cells). The format is cell-based. Conditions: CHO-K1 cells stably expressing human SGLT1 (CS1-5-11D); 1 mM α-MG uptake, 37° C., 1 hour. As to the method: Assay for Inhibitory Effects on Human SGLT1 Activity
1) Cloning and Construction of the Vector Expressing Human SGLT1
The cDNA library was prepared for PCR amplification by reverse transcription from total RNA deprived from human small intestine (Ori gene) using oligo-dT as a primer. Using this cDNA library as a template, the DNA fragment coding 1 to 2005 bp of human SGLT1 (ACCESSION: M24847), which was reported by Hediger et al., was amplified by PCR method and inserted into the multi-cloning site of pcDNA3.1(−) (Invitrogen). The DNA sequence inserted was perfectly matched to the previously reported sequence.
2) Establishment of Cell Line Stably Expressing Human SGLT1
The expression vector of human SGLT1 was digested by Sca I into a linear DNA. The linear DNA was transfected into CHO-K1 cells by means of lipofection (Effectene Transfection Reagent: QIAGEN). Neomycin resistant cell lines were selected by culture in the medium containing G418 (1 mg/mL, LIFE TECHNOLOGIES), and then the activity against the uptake of methyl-α-D-gluco-pyranoside was measured by the method described below. […] CS1-5-11D cells were cultured in the presence of G418 at 200 μg/mL.
3) Measurement of the Inhibitory Activity Against the Uptake of methyl-α-D-glucopyranoside (α-MG)
CS1-5-11D cells were seeded into a 96-well culture plate at a density of 3×10^4 cells/well and cultured for 2 days, and were used in the uptake assay. A mixture of non-labeled (Sigma) and ^14C-labeled α-MG (Amersham Pharmcia Biotec) was added to the uptake buffer (pH 7.4; containing 140 mM sodium chloride, 2 mM potassium chloride, 1 mM calcium chloride, 1 mM magnesium chloride, 10 mM 2-[4-(2-hydroxyethyl)-1-piperazinyl]ethane sulfonic acid, and 5 mM tris(hydroxymethyl)aminomethane) at the final concentration of 1 mM. A test compound was dissolved in dimethyl sulfoxide, and then appropriately diluted with distilled water. The test compound solution was added to the uptake buffer containing 1 mM α-MG, and designated as a measurement buffer. For the control group, the measurement buffer without any test compound was prepared. For measuring the basal uptake, a basal uptake measurement buffer which contains 140 mM chorine chloride instead of sodium chloride was prepared. After removing the culture medium of CS1-5-11D cells, 180 μL of the pre-treatment buffer (the basal uptake buffer without α-MG) was added to each well and incubated at 37° C. for 10 minutes. After repeating the same treatment, the pre-treatment buffer was removed. To each well was added 75 μL of the measurement buffer or the basal uptake buffer was added and incubated at 37° C. for 1 hour. After removing the measurement buffer, cells were washed twice with 180 μL per well of the washing buffer (the basal uptake buffer containing 10 mM non-labeled α-MG). The cells were solubilized by 75 μL per well of 0.2 mol/L sodium hydroxide. The cell lysates were transferred into PicoPlates (Packard), and then added 150 μL of MicroScint-40 (Packard) and mixed. Radioactivity was measured by means of micro-scintillation counter TopCount (Packard). One hundred % was set to the difference between the uptake in the control group and the basal uptake, and the uptake of methyl α-D-gluco-pyranoside at each drug concentration were calculated.

For a further assay, the system named is diabetic rats. Put plainly: Assay for inhibitory effects on blood glucose level increase in rats (liquid meal tolerance test in diabetic rat model). The settings on record: test compound 1 mg/kg orally, liquid meal 17.25 kcal/kg, mean ± S.E.; for Plasma glucose concentration 0.5 h: 0.5 hour after drug administration; for Plasma glucose concentration 1 h: 1 hour after drug administration; for Plasma glucose concentration 0 h: pretreatment (0 h). The format is in vivo. As to the method: Assay for Inhibitory Effects on Blood Glucose Level Increase in rats
1) Preparation of Diabetic Rat Model
Male wistar rats (Japan Charles River), aged 8 weeks old, were injected nicotinamide (230 mg/kg) intraperitoneally. Fifteen minutes after injection, they were injected streptozotocin (85 mg/kg) intravenously from tail vain under anesthesia with ether. After a week, rats were fasted overnight and then glucose tolerance test (2 g/kg) was done.
2) Liquid Meal Tolerance Test
After overnight fasted, the diabetic rats were orally administered a test compound (1 mg/kg), which was dissolved in distilled water, in the drug-treating group, or distilled water alone in a control group. Immediately after the compound administration, 17.25 kcal/kg of liquid meal (No. 038, Control diet, assorted with dextrin and maltose; Oriental Yeast Co., Ltd.) was loaded orally. The blood was collected from tail artery immediately before and after administration with the time course, and treated with heparin immediately. The blood was centrifuged, and the plasma was collected to quantify the plasma glucose concentration by glucose oxidase method. The values in the table are presented as the mean ±S.E.

pIC50: −log10 of the molar value.

In general, pIC50 refers to the IC50 on a negative log10 scale, so that one unit is a factor of ten.

On human SGLT1, `CC(C)c1[nH]nc(O[C@@H]2O[C@H](CO)[C@@H](O)[C@H](O)[C@H]2O)c1Cc1ccc(CCCC(=O)NCCCN(CCO)CCO)cc1` [Example 15, 3-(β-D-Glucopyranosyloxy)-5-isopropyl-4-{[4-(3-{3-[bis(2-hydroxyethyl)amino]propylcarbamoyl}propyl)phenyl]methyl}-1H-pyrazole] gave a pIC50 of 6.95.

At human SGLT1, `CC(C)c1[nH]nc(O[C@@H]2O[C@H](CO)[C@@H](O)[C@H](O)[C@H]2O)c1Cc1ccc(CCCS(=O)(=O)NC(C)(C)C(N)=O)cc1` [Example 35, 4-[(4-{3-[1-Carbamoyl-1-(methyl)ethylsulfamoyl]propyl}-phenyl)methyl]-3-(β-D-glucopyranosyloxy)-5-isopropyl-1H-pyrazole] gave a negative-log IC50 (pIC50) of 6.94.

The compound `CC(C)c1[nH]nc(O[C@@H]2O[C@H](CO)[C@@H](O)[C@H](O)[C@H]2O)c1Cc1ccc(/C=C/C(=O)NC(C)(C)C(N)=O)cc1` [Example 29, 4-[(4-{(1E)-2-[1-Carbamoyl-1-(methyl)ethylcarbamoyl]vinyl}-phenyl)methyl]-3-(β-D-glucopyranosyloxy)-5-isopropyl-1H-pyrazole] gave a negative logarithm of the IC50 (pIC50) at human SGLT1 of 6.37.

`CC(C)c1[nH]nc(O[C@@H]2O[C@H](CO)[C@H](O)[C@H](O)[C@H]2O)c1Cc1ccc(CCCC(=O)NC(C)(C)C(=O)N2CCN(CCO)CC2)cc1` [Example 48, 3-(β-D-Galactopyranosyloxy)-4-[(4-{3-[1-{[4-(2-hydroxy-ethyl)piperazin-1-yl]carbonyl}-1-(methyl)ethylcarbamoyl]-propyl}phenyl)methyl]-5-isopropyl-1H-pyrazole] showed a negative-log IC50 (pIC50) against human SGLT1 of 7.51. Moreover, in the assay on diabetic rats, the “Plasma glucose concentration 0.5 h” value is given as 139 ± 4 mg/dL, the “Plasma glucose concentration 1 h” value amounted to 132 ± 4 mg/dL and the “Plasma glucose concentration 0 h” value was determined as 112 ± 5 mg/dL.

As for `CC(C)c1[nH]nc(O[C@@H]2O[C@H](CO)[C@@H](O)[C@H](O)[C@H]2O)c1Cc1ccc(CCCC(=O)NC(C)(C)C(=O)NCC(N)=O)cc1` [Example 31, 4-[(4-{3-[1-Carbamoylmethylcarbamoyl-1-(methyl)ethyl-carbamoyl]propyl}phenyl)methyl]-3-(β-D-glucopyranosyloxy)-5-isopropyl-1H-pyrazole], at human SGLT1, the pIC50 was 7.02.

In turn, `CC(C)c1[nH]nc(O[C@@H]2O[C@H](CO)[C@H](O)[C@H](O)[C@H]2O)c1Cc1ccc(CCCC(=O)NC(C)(C)C(=O)N2CCNCC2)cc1` [Example 57, 3-(β-D-Galactopyranosyloxy)-5-isopropyl-4-{[4-(3-{1-[(piperazin-1-yl)carbonyl]-1-(methyl)ethylcarbamoyl}-propyl)phenyl]methyl}-1H-pyrazole] showed a negative-log IC50 (pIC50) against human SGLT1 of 7.41.

Turning to “3-(β-D-Glucopyranosyloxy)-4-({4-[3-(2-hydroxyethyl)-carbamoylpropyl]phenyl}methyl)-5-isopropyl-1H-pyrazole [Example 18]”, the negative-log IC50 (pIC50) against human SGLT1 is 6.74.

With `CC(C)c1[nH]nc(O[C@@H]2O[C@H](CO)[C@@H](O)[C@H](O)[C@H]2O)c1Cc1ccc(CCCC(=O)NC(CO)(CO)CO)cc1` [Example 21, 3-(β-D-Glucopyranosyloxy)-4-[(4-{3-[2-hydroxy-1,1-bis-(hydroxymethyl)ethylcarbamoyl]propyl}phenyl)methyl]-5-isopropyl-1H-pyrazole], the negative-log IC50 (pIC50) on human SGLT1 was 7.92. In the assay with diabetic rats, the “Plasma glucose concentration 0.5 h” value is on record as 156 ± 15 mg/dL, the “Plasma glucose concentration 1 h” value worked out at 178 ± 19 mg/dL and the “Plasma glucose concentration 0 h” value stood at 118 ± 9 mg/dL.

For `CC(C)c1[nH]nc(O[C@@H]2O[C@H](CO)[C@@H](O)[C@H](O)[C@H]2O)c1Cc1ccc(/C=C/C(=O)NC(CO)(CO)CO)cc1` [Example 28, 3-(β-D-Glucopyranosyloxy)-4-[(4-{(1E)-2-[2-hydroxy-1,1-bis-(hydroxymethyl)ethylcarbamoyl]vinyl}phenyl)methyl]-5-isopropyl-1H-pyrazole], the pIC50 against human SGLT1 was 6.57.

Turning to `CC(C)c1[nH]nc(O[C@@H]2O[C@H](CO)[C@H](O)[C@H](O)[C@H]2O)c1Cc1ccc(CCCC(=O)NC(C)(C)C(=O)N2CCN(C)CC2)cc1` [Example 61, 3-(β-D-Galactopyranosyloxy)-5-isopropyl-4-{[4-(3-{1-[(4-methylpiperazin-1-yl)carbonyl]-1-(methyl)ethylcarbamoyl}-propyl)phenyl]methyl}-1H-pyrazole], at human SGLT1, the pIC50 is 7.74. For the same compound, in the assay with diabetic rats, the “Plasma glucose concentration 0.5 h” value stood at 136 ± 6 mg/dL, the “Plasma glucose concentration 1 h” value is given as 172 ± 37 mg/dL and the “Plasma glucose concentration 0 h” value is 116 ± 6 mg/dL.

In turn, `CC(C)c1[nH]nc(O[C@@H]2O[C@H](CO)[C@@H](O)[C@H](O)[C@H]2O)c1Cc1ccc(CCCC(=O)NC(C)(C)C(N)=O)cc1` [Example 24, 4-[(4-{3-[1-Carbamoyl-1-(methyl)ethylcarbamoyl]propyl}-phenyl)methyl]-3-(β-D-glucopyranosyloxy)-5-isopropyl-1H-pyrazole] showed a pIC50 against human SGLT1 of 7.62.

Compound `CC(C)c1[nH]nc(O[C@@H]2O[C@H](CO)[C@@H](O)[C@H](O)[C@H]2O)c1Cc1ccc(/C=C/C(=O)NC(C)(CO)CO)cc1` [Example 27, 3-(β-D-Glucopyranosyloxy)-4-[(4-{(1E)-2-[2-hydroxy-1-hydroxymethyl-1-(methyl)ethylcarbamoyl]vinyl}phenyl)-methyl]-5-isopropyl-1H-pyrazole] showed a pIC50 against human SGLT1 of 6.63.

Consider `CC(C)c1[nH]nc(O[C@@H]2O[C@H](CO)[C@@H](O)[C@H](O)[C@H]2O)c1Cc1ccc(CCCC(=O)NC(C)(C)C(=O)NCCO)cc1` [Example 30, 3-(β-D-Glucopyranosyloxy)-4-[(4-{3-[1-(2-hydroxyethyl-carbamoyl)-1-(methyl)ethylcarbamoyl]propyl}phenyl)methyl]-5-isopropyl-1H-pyrazole], for which, on human SGLT1, the pIC50 is 7.28. Besides, in the assay with diabetic rats, the “Plasma glucose concentration 0.5 h” value stood at 163 ± 8 mg/dL, the “Plasma glucose concentration 1 h” value worked out at 187 ± 9 mg/dL and the “Plasma glucose concentration 0 h” value was 121 ± 6 mg/dL.

Turning to `CC(C)c1[nH]nc(O[C@@H]2O[C@H](CO)[C@@H](O)[C@H](O)[C@H]2O)c1Cc1ccc(CCCS(=O)(=O)NCCN)cc1` [Example 34, 4-({4-[3-(2-Aminoethylsulfamoyl)propyl]phenyl}methyl)-3-(β-D-glucopyranosyloxy)-5-isopropyl-1H-pyrazole], the pIC50 on human SGLT1 is 6.61.

The values are drawn from patent US7655632B2, “Pyrazole derivative, medicinal composition containing the same, medicinal use thereof, and intermediate for production thereof” (Kissei Pharmaceutical Co., Ltd., priority 2002, dated 2010).
